Measurements as given in ChEMBL document CHEMBL1671725, “The ABC transporter AnrAB contributes to the innate resistance of Listeria monocytogenes to nisin, bacitracin, and various beta-lactam antibiotics” (2010).
Converted amounts (≈) assume the structure as drawn. Bridge positions count the residues as written; N and C are the ends. Square brackets hold non-standard residues; d marks the D form. Peptide text beside a SMILES is read from it. * marks the point of attachment. Ileψ(thiazoline)Cys = CC[C@H](C)[C@H](N)C1=N[C@H](C(=O)*)CS1; dOrn = NCCC[C@@H](N)C(=O)O

Key:
Type in all cases: functional
Listeria monocytogenes [1] = experiment: Antimicrobial activity against anrB-deficient Listeria monocytogenes EGD-e at 30 ug after 16 hrs by disk diffusion assay; conditions: read-out: IZ
Listeria monocytogenes [2] = experiment: Antimicrobial activity against anrB-deficient Listeria monocytogenes EGD-e assessed as growth inhibition after 16 hrs by broth dilution method relative to wild type
Listeria monocytogenes [3] = experiment: Antimicrobial activity against Listeria monocytogenes EGD-e assessed as growth inhibition after 16 hrs by broth dilution method
Listeria monocytogenes [4] = experiment: Antimicrobial activity against anrB-deficient Listeria monocytogenes EGD-e assessed as growth inhibition after 16 hrs by broth dilution method
Listeria monocytogenes [5] = experiment: Antimicrobial activity against Listeria monocytogenes EGD-e at 30 ug after 16 hrs by disk diffusion assay; conditions: read-out: IZ
Listeria monocytogenes [6] = experiment: Antimicrobial activity against anrB-deficient Listeria monocytogenes EGD-e at 100 ug after 16 hrs by disk diffusion assay; conditions: read-out: IZ
Listeria monocytogenes [7] = experiment: Antimicrobial activity against Listeria monocytogenes EGD-e at 100 ug after 16 hrs by disk diffusion assay; conditions: read-out: IZ
Listeria monocytogenes [8] = experiment: Antimicrobial activity against anrB-deficient Listeria monocytogenes EGD-e at 10 ug after 16 hrs by disk diffusion assay; conditions: read-out: IZ
Listeria monocytogenes [9] = experiment: Antimicrobial activity against Listeria monocytogenes EGD-e at 10 ug after 16 hrs by disk diffusion assay; conditions: read-out: IZ
Listeria monocytogenes [10] = experiment: Antimicrobial activity against mprF-deficient Listeria monocytogenes EGD-e assessed as growth inhibition after 16 hrs by broth dilution method
Listeria monocytogenes [11] = experiment: Antimicrobial activity against virR-deficient Listeria monocytogenes EGD-e assessed as growth inhibition after 16 hrs by broth dilution method relative to wild type
Listeria monocytogenes [12] = experiment: Antimicrobial activity against mprF-deficient Listeria monocytogenes EGD-e assessed as growth inhibition after 16 hrs by broth dilution method relative to wild type
Listeria monocytogenes [13] = experiment: Antimicrobial activity against telA-deficient Listeria monocytogenes EGD-e assessed as growth inhibition after 16 hrs by broth dilution method relative to wild type
Listeria monocytogenes [14] = experiment: Antimicrobial activity against lisK-deficient Listeria monocytogenes EGD-e assessed as growth inhibition after 16 hrs by broth dilution method relative to wild type
Listeria monocytogenes [15] = experiment: Antimicrobial activity against lisK-deficient Listeria monocytogenes EGD-e assessed as growth inhibition after 16 hrs by broth dilution method
Listeria monocytogenes [16] = experiment: Antimicrobial activity against telA-deficient Listeria monocytogenes EGD-e assessed as growth inhibition after 16 hrs by broth dilution method
Listeria monocytogenes [17] = experiment: Antimicrobial activity against virR-deficient Listeria monocytogenes EGD-e assessed as growth inhibition after 16 hrs by broth dilution method
Listeria monocytogenes [18] = experiment: Antimicrobial activity against anrB-deficient Listeria monocytogenes EGD-e at 5 ug after 16 hrs by disk diffusion assay; conditions: read-out: IZ
Listeria monocytogenes [19] = experiment: Antimicrobial activity against Listeria monocytogenes EGD-e at 5 ug after 16 hrs by disk diffusion assay; conditions: read-out: IZ
Listeria monocytogenes [20] = experiment: Antimicrobial activity against anrB-deficient Listeria monocytogenes EGD-e at 1 ug after 16 hrs by disk diffusion assay; conditions: read-out: IZ
Listeria monocytogenes [21] = experiment: Antimicrobial activity against Listeria monocytogenes EGD-e at 1 ug after 16 hrs by disk diffusion assay; conditions: read-out: IZ

MIC (Listeria monocytogenes [3]) [µg/mL]	MIC (Listeria monocytogenes [4]) [µg/mL]	Structure (SMILES)	zone of inhibition at 30 µg/disc (Listeria monocytogenes [1]) [mm]	fold change (FC) (Listeria monocytogenes [2])	zone of inhibition at 30 µg/disc (Listeria monocytogenes [5]) [mm]	other results
2 (≈ 4.39 µM)	1 (≈ 2.2 µM)	CO/N=C(\C(=O)N[C@@H]1C(=O)N2C(C(=O)O)=C(COC(C)=O)CS[C@H]12)c1csc(N)n1 [CEFOTAXIME]	22.5	2	19.6	
2 (≈ 0.924 µM)	0.5 (≈ 0.231 µM)	C/C=C(/NC(=O)[C@H](CCCCN)NC(=O)[C@H](C)NC(=O)[C@H]1CS[C@@H](C)[C@@H](NC(=O)[C@H]2CSC[C@@H](NC(=O)[C@H](C)NC(=O)[C@@H](N)[C@@H](C)CC)C(=O)N[C@@H](CCCCN)C(=O)N[C@@H](Cc3ccccc3)C(=O)N[C@@H](CC(C)C)C(=O)N2)C(=O)N2CCC[C@H]2C(=O)NCC(=O)N1)C(=O)NCC(=O)N[C@@H]1CSC[C@H]2NC(=O)[C@H](Cc3ccc(O)cc3)NC(=O)[C@@H](CS/C=C/NC2=O)NC(=O)[C@H](CC(N)=O)NC(=O)[C@H](Cc2ccccc2)NC1=O [GALLIDERMIN]		4		
		CC(=O)OCC1=C(C(=O)O)N2C(=O)[C@@H](NC(=O)Cc3cccs3)[C@H]2SC1 [CEPHALOTHIN]	33.6		30.3	
		CC(C)(O/N=C(\C(=O)N[C@@H]1C(=O)N2C(C(=O)[O-])=C(C[n+]3ccccc3)CS[C@H]12)c1csc(N)n1)C(=O)O [CEFTAZIDIME]	7.8		6.1	
		CC1(C)S[C@@H]2[C@H](NC(=O)C(C(=O)O)c3ccccc3)C(=O)N2[C@H]1C(=O)O (stereo partly drawn) [CARBENICILLIN]				zone of inhibition at 100 µg/disc (Listeria monocytogenes [6]): 43 mm; zone of inhibition at 100 µg/disc (Listeria monocytogenes [7]): 36.7 mm
2.87 (≈ 6.76 µM)	1.44 (≈ 3.39 µM)	CO/N=C(\C(=O)N[C@@H]1C(=O)N2C(C(=O)O)=C(COC(N)=O)CS[C@H]12)c1ccco1 [CEFUROXIME]	24.8	2	21.3	
1 (≈ 2.86 µM)	0.5 (≈ 1.43 µM)	CC1(C)S[C@@H]2[C@H](NC(=O)[C@H](N)c3ccccc3)C(=O)N2[C@H]1C(=O)O [AMPICILLIN]		2		zone of inhibition at 10 µg/disc (Listeria monocytogenes [8]): 36.6 mm; zone of inhibition at 10 µg/disc (Listeria monocytogenes [9]): 32.8 mm
		N[C@@H](C(=O)N[C@@H]1C(=O)N2C(C(=O)O)=C(Cl)CS[C@H]12)c1ccccc1 [CEFACLOR ANHYDROUS]	24.8		22.2	
256 (≈ 180 µM)	32 (≈ 22.5 µM)	CC[C@H](C)[C@H](N)C1=N[C@H](C(=O)N[C@@H](CC(C)C)C(=O)N[C@H](CCC(=O)O)C(=O)N[C@H](C(=O)N[C@H]2CCCCNC(=O)[C@H](CC(N)=O)NC(=O)[C@@H](CC(=O)O)NC(=O)[C@H](Cc3cnc[nH]3)NC(=O)[C@@H](Cc3ccccc3)NC(=O)[C@H]([C@@H](C)CC)NC(=O)[C@@H](CCCN)NC2=O)[C@@H](C)CC)CS1 [BACITRACIN] ({Ileψ(thiazoline)Cys}-L[dE]IK[dOrn]I[dF]H[dD]N; lactam 4-C)		8		zone of inhibition at 10 µg/disc (Listeria monocytogenes [8]): 20 mm; MIC (Listeria monocytogenes [10]): 64 µg/mL (≈ 45 µM); Ratio (Listeria monocytogenes [11]): -128; Ratio (Listeria monocytogenes [12]): -4; Ratio (Listeria monocytogenes [13]): -2; Ratio (Listeria monocytogenes [14]): -2; MIC (Listeria monocytogenes [15]): 128 µg/mL (≈ 90 µM); MIC (Listeria monocytogenes [16]): 128 µg/mL (≈ 90 µM); MIC (Listeria monocytogenes [17]): 2 µg/mL (≈ 1.41 µM); zone of inhibition at 10 µg/disc (Listeria monocytogenes [9]): 10.5 mm
		CCN1CCN(C(=O)N[C@@H](C(=O)N[C@@H]2C(=O)N3C(C(=O)O)=C(CSc4nnnn4C)CS[C@H]23)c2ccc(O)cc2)C(=O)C1=O [CEFOPERAZONE]	24		20.6	
0.72 (≈ 2.15 µM)	0.36 (≈ 1.08 µM)	CC1(C)S[C@@H]2[C@H](NC(=O)Cc3ccccc3)C(=O)N2[C@H]1C(=O)O [PENICILLIN G]		2		zone of inhibition at 5 µg/disc (Listeria monocytogenes [18]): 34.7 mm; zone of inhibition at 5 µg/disc (Listeria monocytogenes [19]): 30.5 mm
		CC1=C(C(=O)O)N2C(=O)[C@@H](NC(=O)[C@H](N)c3ccccc3)[C@H]2SC1 [CEPHALEXIN ANHYDROUS]	14.8		12.2	
		CCN1CCN(C(=O)N[C@@H](C(=O)N[C@@H]2C(=O)N3[C@@H]2SC(C)(C)[C@@H]3C(=O)O)c2ccccc2)C(=O)C1=O [PIPERACILLIN]	35.3		30.7	
		C[C@@H](O)[C@H]1C(=O)N2C(C(=O)O)=C(SCCNC=N)C[C@H]12 [IMIPENEM ANHYDROUS]	42.3		39.7	
		C=C(NC(=O)[C@@H](NC(=O)[C@H](Cc1cnc[nH]1)NC(=O)[C@@H](NC(=O)[C@H](CO)NC(=O)[C@@H]1CS[C@@H](C)[C@H]2NC(=O)C(=C)NC(=O)[C@H](NC(=O)[C@H](CCCCN)NC(=O)[C@H](CCSC)NC(=O)[C@H](CC(N)=O)NC(=O)[C@@H]3CS[C@@H](C)[C@@H](NC(=O)[C@H](CCCNN)NC(=O)[C@@H]4CS[C@@H](C)[C@@H](NC(=O)[C@@H]5CSC[C@@H](NC(=O)/C(=C\C)NC(=O)[C@@H](N)[C@@H](C)CC)C(=O)N[C@@H]([C@@H](C)CC)C(=O)NC(=C)C(=O)N[C@@H]([C@@H](C)CC)C(=O)N5)C(=O)N5CCC[C@H]5C(=O)NCC(=O)N4)C(=O)NCC(=O)N[C@@H](C)C(=O)N[C@@H]([C@@H](C)CC)C(=O)N[C@@H](CCSC)C(=O)NCC(=O)N3)[C@H](C)SC[C@H](NC2=O)C(=O)N[C@H](Cc2cnc[nH]2)C(=O)N1)[C@@H](C)CC)C(C)C)C(=O)N[C@@H](CCCCN)C(=O)O [NISIN]		2		Ratio (Listeria monocytogenes [11]): -32; Ratio (Listeria monocytogenes [12]): -16; Ratio (Listeria monocytogenes [13]): -2; Ratio (Listeria monocytogenes [14]): 2
		CC1=C(C(=O)O)N2C(=O)[C@@H](NC(=O)[C@H](N)C3=CCC=CC3)[C@H]2SC1 [CEPHRADINE]	16.9		13.6	
		CO[C@@]1(NC(=O)CSCC#N)C(=O)N2C(C(=O)O)=C(CSc3nnnn3C)CS[C@@H]21 [CEFMETAZOLE]	34.2		31.4	
		Cc1onc(-c2ccccc2)c1C(=O)N[C@@H]1C(=O)N2[C@@H]1SC(C)(C)[C@@H]2C(=O)O [OXACILLIN]				zone of inhibition at 1 µg/disc (Listeria monocytogenes [20]): 11.9 mm; zone of inhibition at 1 µg/disc (Listeria monocytogenes [21]): 9.6 mm
